Converted amounts (≈) assume the structure as drawn. Where a name gives a salt, the structure may show the parent alone. Read-outs that look alike come from different tables or passages of the source.
Tests used:
[1] = tested on: A. baumannii; assay: Gram negative MIC protocol (OD600, LB, 24 h); settings: Acinetobacter baumannii
Protocol: (§1) Overnight bacterial cultures were grown in LB with no added antibiotics at 37° C. with shaking. A 1:1000 dilution of these cultures into LB was exposed to concentration gradients of compounds in 96-well plates (100 μL per well assay volume). Resulting plates were incubated at 37° C. for 24 h without shaking, and OD600 was measured at the end of the incubation. MICs were determined as the lowest concentrations at which OD600 remained at baseline.

[2] = tested on: H37RvMA; assay: Tuberculosis Alamar Blue/Resazurin assay (MIC); type: cell-based; settings: Mycobacterium tuberculosis, H37RV, read-out: WT H37Rv MTB Activity
[3] = tested on: E. coli; assay: Gram negative MIC protocol (OD600, LB, 24 h); settings: Escherichia coli
Protocol: as §1

[4] = read-out: MIC A. baumannii LB Media, A. baumannii, LB media, 24 h, OD600
[5] = read-out: MIC E. coli delta-TolC LB Media, E. coli delta-TolC strain, LB media, 24 h, OD600
[6] = read-out: MIC WT E. coli LB Media, wild-type E. coli, LB media, 24 h, OD600
[7] = read-out: MIC A. baumannii LB Media
[8] = read-out: MIC E. coli delta-TolC LB Media, E. coli delta-TolC, LB media, OD600
[9] = read-out: MIC WT E. coli LB Media, WT E. coli, LB media, OD600

| Compound | MIC [1, 4] [µM] | MIC ([2]; WT H37Rv MTB) [µM] | MIC [3, 5] [µM] | MIC [3, 6] [µM] | MIC [1, 7] [µM] | MIC [2] [µM] | MIC [3, 8] [µM] | MIC [3, 9] [µM] |
| --- | --- | --- | --- | --- | --- | --- | --- | --- |
| CC(CC1CCCCC1)NCc1ccccc1OCCCO (centres unmarked) [B251] | 91 (≈ 27.8 µg/mL) | > 150 | 7 (≈ 2.14 µg/mL) | 91 (≈ 27.8 µg/mL) | – | – | – | – |
| COc1ccc(OCCCOc2ccccc2CNC(C)CC2CCCCC2)cc1 (centres unmarked) [B271] | 55 (≈ 22.6 µg/mL) | 55 (≈ 22.6 µg/mL) | 3 (≈ 1.23 µg/mL) | 150 (≈ 61.7 µg/mL) | – | – | – | – |
| C1=CCC(CCNCc2ccccc2)CC1 (centres unmarked) [B156, N-benzyl-2-(cyclohex-3-enyl)ethanamine hydrochloride] | – | – | – | – | 150 | > 150 | 150 | 150 |
| NC(=O)Nc1ccccc1CNCCC1CCCCC1 [B373] | > 150 | > 150 | 150 (≈ 41.3 µg/mL) | > 150 | – | – | – | – |
| CC(CC1CCCCC1)NCc1ccccc1OCC1CNC(=O)C1 (centres unmarked) [B403] | > 150 | > 150 | – | – | – | – | 7 (≈ 2.41 µg/mL) | > 150 |
| CC(CC1CCCCC1)NCc1ccccc1OC1CC2CCC1C2 (centres unmarked) [B390, N-(2-(bicyclo[2.2.1]heptan-2-yloxy)benzyl)-1-cyclohexylpropan-2-amine] | 55 (≈ 18.8 µg/mL) | 20.2 (≈ 6.9 µg/mL) | 3 (≈ 1.02 µg/mL) | 150 (≈ 51.2 µg/mL) | – | – | – | – |
| CC(CC1CCCCC1)NCc1ccccc1OCCCOCC(F)(F)F (centres unmarked) [B304] | > 150 | 91 (≈ 35.3 µg/mL) | 3 (≈ 1.16 µg/mL) | > 150 | – | – | – | – |
| c1ccc(CNCCC2CC3CCC2C3)cc1 (centres unmarked) [B146] | 150 (≈ 34.4 µg/mL) | > 150 | – | – | – | – | 90 (≈ 20.6 µg/mL) | 150 (≈ 34.4 µg/mL) |
| CC(CC1CCCCC1)NCc1ccccc1OCc1ccc(F)cc1 (centres unmarked) [B408, 1-cyclohexyl-N-(2-((4-fluorobenzyl)oxy)benzyl)propan-2-amine] | 55 (≈ 19.6 µg/mL) | 12.2 (≈ 4.34 µg/mL) | – | – | – | – | 2 (≈ 0.711 µg/mL) | 55 (≈ 19.6 µg/mL) |
| CC(CC1CCCCC1)NCc1ccccc1OCc1ccccc1I (centres unmarked) [B388, 1-cyclohexyl-N-(2-((2-iodobenzyl)oxy)benzyl)propan-2-amine] | 33 (≈ 15.3 µg/mL) | 33.4 (≈ 15.5 µg/mL) | 7 (≈ 3.24 µg/mL) | 150 (≈ 69.5 µg/mL) | – | – | – | – |
| CC(CC1CCCCC1)NCc1ccccc1OCC(=O)N(C)Cc1ccco1 (centres unmarked) [B318] | > 150 | 150 (≈ 59.8 µg/mL) | 7 (≈ 2.79 µg/mL) | > 150 | – | – | – | – |
| CC(CC1CCCC1)NCc1ccccc1 (centres unmarked) [B38] | – | – | – | – | 150 (≈ 32.6 µg/mL) | > 150 | 90 (≈ 19.6 µg/mL) | 91 (≈ 19.8 µg/mL) |
| c1ccc(OCC2CCCO2)c(CNCCC2CCCCC2)c1 (centres unmarked) [B329, 2-cyclohexyl-N-(2-((tetrahydrofuran-2-yl)methoxy)benzyl)ethanamine] | > 150 | > 150 | 33 (≈ 10.5 µg/mL) | > 150 | – | – | – | – |
| COC1(CC(C)NCc2ccccc2)CCC1 (centres unmarked) [B52] | > 150 | > 150 | – | – | – | – | > 150 | > 150 |
| c1ccc(CNCC2CC3CCC2C3)cc1 (centres unmarked) [B43] | > 150 | > 150 | – | – | – | – | > 150 | > 150 |
| COCCOc1ccccc1CNC(C)CC1CCCCC1 (centres unmarked) [B294] | > 150 | > 150 | 7 (≈ 2.14 µg/mL) | > 150 | – | – | – | – |
| CCOc1ccccc1CNC(C)CC1CCCCC1 (centres unmarked) [B293] | > 150 | > 150 | 4 (≈ 1.1 µg/mL) | 150 (≈ 41.3 µg/mL) | – | – | – | – |
| CC(NCc1ccccc1)C1C(C)(C)C1(C)C (centres unmarked) [B77] | > 150 | > 150 | – | – | – | – | > 150 | > 150 |
| C1=C(CCNCc2ccccc2)c2ccccc2C1 [B27] | > 150 | 91 (≈ 22.7 µg/mL) | – | – | – | – | > 150 | > 150 |
| C[C@@H](CC1=CCCCC1)NCc1ccccc1 [B171] | – | – | – | – | 110 (≈ 25.2 µg/mL) | > 150 | 19 (≈ 4.36 µg/mL) | 41 (≈ 9.4 µg/mL) |
| c1ccc(CNCC2CCC2)cc1 [B135] | > 150 | > 150 | – | – | – | – | > 150 | > 150 |

| Compound | MIC [1, 4] [µM] | MIC ([2]; WT H37Rv MTB) [µM] | MIC [3, 5] [µM] | MIC [3, 6] [µM] | MIC [1, 7] [µM] | MIC [2] [µM] | MIC [3, 8] [µM] | MIC [3, 9] [µM] |
| --- | --- | --- | --- | --- | --- | --- | --- | --- |
| O=C1Cc2ccccc2CN1CCCC1CCCCC1 [B416, 2-(3-cyclohexylpropyl)-1,4-dihydroisoquinolin-3(2H)-one] | > 150 | 2.5 (≈ 0.679 µg/mL) | – | – | – | – | 55 (≈ 14.9 µg/mL) | > 150 |
| CC(CC1CCCCC1)NCc1ccccc1CS(=O)(=O)NCC(=O)NCC(=O)O (centres unmarked) [B452, ((2-(((1-cyclohexylpropan-2-yl)amino)methyl)benzyl)sulfonyl)glycylglycine] | > 150 | > 150 | – | – | – | – | > 150 | > 150 |
| NC(=O)c1ccccc1CNCCC1CCCCC1 [B259, 2-((2-cyclohexylethylamino)methyl)benzamide trifluoroacetate] | – | – | 125 | > 150 | > 150 | > 150 | – | – |
| Cc1cc(COc2ccccc2CNC(C)CC2CCCCC2)no1 (centres unmarked) [B282] | > 150 | 150 (≈ 51.4 µg/mL) | 3 (≈ 1.03 µg/mL) | > 150 | – | – | – | – |
| CC(NCc1ccccc1)C1CCCCCC1 (centres unmarked) [B101] | 150 (≈ 34.7 µg/mL) | > 150 | – | – | – | – | 40 (≈ 9.26 µg/mL) | 70 (≈ 16.2 µg/mL) |
| COc1ccc2c(c1)[C@@H](NCc1ccccc1)CC2 [B209, (S)-N-benzyl-6-methoxy-2,3-dihydro-1H-inden-1-amine hydrochloride] | > 300 | > 150 | > 300 | > 300 | – | – | – | – |
| CC(NCc1ccccc1)C(C)C1CCCCC1 (centres unmarked) [B89] | > 150 | 91 (≈ 22.3 µg/mL) | – | – | – | – | > 150 | 300 (≈ 73.6 µg/mL) |
| CC(O)COc1ccccc1CNC(C)CC1CCCCC1 (centres unmarked) [B361] | 91 (≈ 27.8 µg/mL) | > 150 | 4 (≈ 1.22 µg/mL) | 91 (≈ 27.8 µg/mL) | – | – | – | – |
| CC(NCCC1=CCCCC1)c1ccccc1 (centres unmarked) [B36] | > 150 | > 150 | – | – | – | – | > 150 | > 150 |
| CS(=O)(=O)Cc1ccccc1CNCCC1CCCCC1 [B346] | 12 (≈ 3.71 µg/mL) | > 150 | 4 (≈ 1.24 µg/mL) | > 150 | – | – | – | – |
| Cc1cccc(CNCCC2=CCCCC2)c1 [B11, 2-(cyclohex-1-en-1-yl)-N-(3-methylbenzyl)ethan-1-amine] | > 150 | > 150 | – | – | – | – | > 150 | > 150 |
| c1cc(CNCCC2CCCCC2)c2c(c1)OCO2 [B374] | > 150 | 150 (≈ 39.2 µg/mL) | > 150 | > 150 | – | – | – | – |
| CCCCCCCCNCc1ccccc1 [B150] | > 150 | > 150 | – | – | – | – | > 150 | > 150 |
| CC(CC1CCCCC1)NCc1cccc2ccn(CC(=O)O)c12 (centres unmarked) [B436, 2-(7-(((1-cyclohexylpropan-2-yl)amino)methyl)-1H-indol-1-yl)acetic acid hydrochloride] | > 150 | > 150 | – | – | – | – | 91 | > 150 |
| c1ccc(CNCCN2CCCC3CCCCC32)cc1 (centres unmarked) [B124] | > 150 | > 150 | – | – | – | – | > 150 | > 150 |
| c1ccc(CNCCC2CC3CCC2O3)cc1 (centres unmarked) [B66] | > 150 | > 150 | – | – | – | – | > 150 | > 150 |
| CC(CC1CCCCC1)NCc1ccccc1CCCO (centres unmarked) [B378, 3-(2-((1-cyclohexylpropan-2-ylamino)methyl)phenyl)propan-1-ol] | 150 (≈ 43.4 µg/mL) | 150 (≈ 43.4 µg/mL) | 7 (≈ 2.03 µg/mL) | 91 (≈ 26.3 µg/mL) | – | – | – | – |
| CC(CC1CCCCC1)NCc1ccccc1OCC1CC1 (centres unmarked) [B287] | 91 (≈ 27.4 µg/mL) | 150 (≈ 45.2 µg/mL) | 3 (≈ 0.904 µg/mL) | 150 (≈ 45.2 µg/mL) | – | – | – | – |
| FC(F)(F)c1ccc(CC2(NCc3ccccc3)CC2)cc1 [B96] | > 150 | – | – | – | – | > 150 | 90 (≈ 27.5 µg/mL) | > 150 |
| CC(CC1CCCCC1)NCc1ccccc1OCc1cccnc1 (centres unmarked) [B296] | > 150 | > 150 | 7 (≈ 2.37 µg/mL) | 91 (≈ 30.8 µg/mL) | – | – | – | – |

From patent publication US11261201B2 (priority 2018, dated 2022)
